Measurements from US20250296938A1, “Compounds that Interact with the Ras Superfamily for the Treatment of Cancers, Inflammatory Diseases, Rasopathies, and Fibrotic Disease” (SHY Therapeutics, LLC, priority 2018, published 2025).

Tests used:
AKT phosphorylation = assay: Western AKT cell-based phosphorylation assay, PANC-1; details: Homo sapiens, 6 hours, EGF stimulation, PANC-1
Procedure: Human tumor-derived pancreatic cancer cell line Panc-1 was purchased from American Type Culture Collection and grown in complete DMEM-High Glucose supplemented with penicillin (100 U/mL), streptomycin (100 μg/mL), and 10% heat-inactivated FBS at 37° C. in a humidified incubator with 5% CO2.
(§1) Method: Cells were plated at 350000 cells/well density in a 12-well plate, allowed 3 hours to adhere to the plate, then starved in the appropriate medium in the presence of 0.5% FBS overnight. The small molecules to be tested were added to the cells in the final concentration of 10 μM in the presence of 0.3% DMSO for 6 hours incubation at 37° C. Next, cells were stimulated with 1.5 ng/ml EGF for 15 minutes then cells were lysed with lysis buffer containing 1% Triton X-100, EDTA, and Halt™ Protease & Phosphatase Inhibitor Cocktail (Thermo Scientific). Protein concentration was assessed by BCA protein assay (Thermo Scientific). Phosphorylation level of Akt was determined by western blot.
(§2) Western blot protocol: Equal amounts of protein (15-50 μg) were separated by SDS-PAGE and transferred to nitrocellulose membranes (Invitrogen by Thermo Fisher Scientific). The membrane was stained with Ponceau S Stain (Boston BioProducts) to verify uniform protein loading. Membranes were blocked with 10% milk and phosphorylation levels of Akt were assessed by incubating overnight at 4° C. with anti-phospho-Akt (Ser473) antibody (Cell Signaling) followed by HRP-conjugated secondary antibody (Jackson Immunoresearch, West Grove, PA). Bands were incubated in Amersham ECL Prime Western Blotting Detection Reagent (GE Healthcare) and visualized using the ChemiDoc MP imaging system (Bio-Rad).

MAPK phosphorylation = assay: MAPK cell-based phosphorylation assay (ELISA or Western), PANC-1; details: Homo sapiens; 10 μM, 6 hours, EGF stimulation, PANC-1
Procedure: Cell lines: Tumor-derived pancreatic cancer cell line PANC-1 was purchased from ATCC and were and grown in DMEM-High Glucose supplemented with penicillin (100 U/mL), streptomycin (100 μg/mL), and 10% heat-inactivated FBS at 37° C. in a humidified incubator with 5% CO2.
Method: Cells were plated at 7500 cells/well density in a 96-well plate, allowed 3 hours to adhere to the plate, then starved in DMEM plus 0.5% FBS overnight. The small molecules to be tested were added to the cells in the final concentration of 10 μM in the presence of 0.3% DMSO for 6 hours incubation at 37° C. For IC50 value determination, serial dilutions of compounds were added to cells under the same conditions. Next, cells were stimulated with 1.5 ng/mL EGF for 15 minutes followed by cell fixation with 4% formaldehyde in PBS at room temperature for 20 minutes. Cell-direct ELISA determined phosphorylation level of MAPK.
Cell-direct ELISA: For each well, cells were permeabilized with 0.1% PBS-Triton X-100, quenched with 0.06% H2O2 in 0.1% PBS-Triton X-100, and probed with anti-phospho-MAPK antibodies (R&D Systems) followed by HRP-conjugated secondary antibody (Jackson Immunoresearch, West Grove, PA). Next, a 50 μM solution of the fluorescent substrate AmpliFlu Red (Sigma) was added and incubated at RT for 20 minutes. At the end of the incubation time, phosphorylation level of MAPK was determined by measuring fluorescence at 595 nm using SpectraMax M3 plate reader (Molecular Devices).
Cell lines: Human NSCLC cells NCI-H1975 and NCI-H1299, and tumor-derived pancreatic cancer cell lines Panc-1, MIA-PaCa-2, and BxPC3, were all purchased from American Type Culture Collection and grown in complete RPMI medium (BxPC3, NCI-H1975 and NCI-H1299) or DMEM-High Glucose (Panc1 and MIA-PaCa-2), supplemented with penicillin (100 U/mL), streptomycin (100 μg/mL), and 10% heat-inactivated FBS at 37° C. in a humidified incubator with 5% CO2.
as §1, with “C. For IC50 value determination, serial dilutions of compounds were added to cells under the same conditions.” for “C.”, “MAPK” for “Akt”
as §2, with “MAPK” for “Akt”, “anti-phospho-p44/42 (Thr202/Tyr204)” for “anti-phospho-Akt (Ser473)”

| SMILES | inhibition at 10 µM (AKT phosphorylation) [%] | inhibition at 10 µM (MAPK phosphorylation) [%] |
| --- | --- | --- |
| COc1ccc(-c2c(-c3ccn(C)n3)sc3nc(-c4nccn4C)nc(N4CCC(OC)C4)c23)cc1 (stereo not drawn) [drawing 413] | 0 | 1 to 25 |
| COC1CCN(c2nc(-c3nccn3C)nc3sc(-c4ccccc4Cl)c(-c4cscn4)c23)C1 (stereo not drawn) [drawing 415] | 0 | 0 |
| COc1cccc(-c2sc3nc(-c4nccn4C)nc(N4CCC(OC)C4)c3c2-c2cscn2)c1 (stereo not drawn) [drawing 417] | 0 | 0 |
| COCCNc1nc(-c2cn(C)cn2)nc2sc(-c3cccc(OC)c3Cl)c(-c3ccc(OC)cc3)c12 [drawing 423] | 0 | 76 to 100 |
| COCCNc1nc(-c2cn(C)cn2)nc2sc(-c3cc(OC)ccc3Cl)c(-c3ccc(OC)cc3)c12 [drawing 424] | 76 to 100 | 76 to 100 |
| COc1cc(-c2sc3nc(-c4nccn4C)nc(N4CCC(OC)C4)c3c2-c2ccccc2)ccn1 (stereo not drawn) [drawing 427] | 0 | 51 to 75 |
| COC1CCN(c2nc(-c3nccn3C)nc3sc(-c4ccnn4C)c(-c4ccccc4)c23)C1 (stereo not drawn) [drawing 428] | 0 | 0 |
| COC1CCN(c2nc(-c3nccn3C)nc3sc(-c4cccnc4)c(-c4ccccc4)c23)C1 (stereo not drawn) [drawing 429] | 0 | 51 to 75 |
| COc1ccc(-c2sc3nc(-c4nccn4C)nc(N4CCC(OC)C4)c3c2-c2ccccc2)cn1 (stereo not drawn) [drawing 430] | 0 | 1 to 25 |
| COc1ncccc1-c1sc2nc(-c3nccn3C)nc(N3CCC(OC)C3)c2c1-c1ccccc1 (stereo not drawn) [drawing 431] | 0 | 76 to 100 |
| COC1CCN(c2nc(-c3nccn3C)nc3sc(-c4cnc(C5CC5)o4)c(-c4ccccc4)c23)C1 (stereo not drawn) [drawing 432] | 0 | 51 to 75 |
| COCCn1cc(-c2sc3nc(-c4nccn4C)nc(N4CCC(OC)C4)c3c2-c2ccccc2)cn1 (stereo not drawn) [drawing 433] | 0 | 51 to 75 |
| COC1CCN(c2nc(-c3nccn3C)nc3sc(-c4ccncc4C)c(-c4ccccc4)c23)C1 (stereo not drawn) [drawing 434] | 0 | 0 |
| COC1CCN(c2nc(-c3nccn3C)nc3sc(-c4cnn(C)c4)c(-c4ccccc4)c23)C1 (stereo not drawn) [drawing 435] | 0 | 1 to 25 |
| COC1CCN(c2nc(-c3nccn3C)nc3sc(-c4ccc(CO)cc4)c(-c4ccccc4)c23)C1 (stereo not drawn) [drawing 436] | 0 | 51 to 75 |
| COC1CCN(c2nc(-c3nccn3C)nc3sc(-c4ccc(N)nc4C)c(-c4ccccc4)c23)C1 (stereo not drawn) [drawing 437] | 0 | 26 to 50 |
| COC1CCN(c2nc(-c3nccn3C)nc3sc(-c4ccccc4CO)c(-c4ccccc4)c23)C1 (stereo not drawn) [drawing 438] | 0 | 0 |
| COc1nscc1-c1sc2nc(-c3nccn3C)nc(N3CCC(OC)C3)c2c1-c1ccccc1 (stereo not drawn) [drawing 439] | 0 | 51 to 75 |
| COC1CCN(c2nc(-c3nccn3C)nc3sc(-c4ccnc(N(C)C)c4)c(-c4ccccc4)c23)C1 (stereo not drawn) [drawing 440] | 0 | 76 to 100 |
| COC1CCN(c2nc(-c3nccn3C)nc3sc(Br)c(-c4ccccc4)c23)C1 (stereo not drawn) [drawing 441] | 0 | 26 to 50 |
| COc1ccc(-c2c(-c3cccc(OC)c3F)sc3nc(-c4nccn4C)nc(N4CCC(OC)C4)c23)cc1 (stereo not drawn) [drawing 442] | 0 | 0 |

| SMILES | inhibition at 10 µM (AKT phosphorylation) [%] | inhibition at 10 µM (MAPK phosphorylation) [%] |
| --- | --- | --- |
| COCC1CN(c2nc(-c3nccn3C)nc3sc(-c4cccc(OC)c4F)c(-c4ccc(OC)cc4)c23)C1 [drawing 443] | 0 | 76 to 100 |
| COc1cccc(-c2sc3nc(-c4nccn4C)nc(N4CCC(OC)C4)c3c2-c2ccccc2)c1F (stereo not drawn) [drawing 444] | 76 to 100 | 76 to 100 |
| COc1c(O)nc(-c2ccccn2)nc1Oc1cnn(C)c1 [drawing 445] | 0 | 1 to 25 |
| COc1c(O)nc(-c2ccccn2)nc1Oc1ccc2ncccc2c1 [drawing 446] | 0 | 0 |
| COc1c(O)nc(-c2ccccn2)nc1Oc1cccnc1 [drawing 447] | 0 | 0 |
| COc1cccc(Oc2nc(-c3ccccn3)nc(O)c2OC)c1 [drawing 448] | 0 | 0 |
| COc1ccc(Oc2nc(-c3ccccn3)nc(O)c2OC)cc1 [drawing 449] | 0 | 0 |
| COCCc1ccc(Oc2nc(-c3ccccn3)nc(O)c2OC)cc1 [drawing 450] | 0 | 0 |
| COc1c(O)nc(-c2ccccn2)nc1Oc1ccccc1 [drawing 451] | 0 | 0 |
| O=C(c1nc(-c2ccccn2)nc(O)c1O)N1CCc2ccccc2C1 [drawing 452] | 0 | 0 |
| O=C(c1nc(-c2ccccn2)nc(O)c1O)N1CCOCC1 [drawing 453] | 0 | 0 |
| CN(Cc1ccccc1)C(=O)c1nc(-c2ccccn2)nc(O)c1O [drawing 454] | 0 | 0 |
| O=C(NCc1ccccc1)c1nc(-c2ccccn2)nc(O)c1O [drawing 455] | 0 | 1 to 25 |
| O=C(c1nc(-c2ccccn2)nc(O)c1O)N1CCCC1 [drawing 456] | 0 | 0 |
| O=C(NC1CCCC1)c1nc(-c2ccccn2)nc(O)c1O [drawing 457] | 0 | 0 |
| CC(C)CN(C)C(=O)c1nc(-c2ccccn2)nc(O)c1O [drawing 458] | 0 | 0 |
| CC(C)CNC(=O)c1nc(-c2ccccn2)nc(O)c1O [drawing 459] | 0 | 0 |
| COCCN(C)C(=O)c1nc(-c2ccccn2)nc(O)c1O [drawing 460] | 0 | 0 |
| O=C(NC1CCC1)c1nc(-c2ccccn2)nc(O)c1O [drawing 461] | 0 | 0 |
| CC(C)NC(=O)c1nc(-c2nccn2C)nc(O)c1O [drawing 462] | 0 | 0 |
| CCN(CC)C(=O)c1nc(-c2nccn2C)nc(O)c1O [drawing 463] | 0 | 0 |
